Experimental data as given in patent publication US20260053861A1, “CELL COMPOSITIONS AND METHODS OF USING THE SAME” (THE REGENTS OF THE UNIVERSITY OF CALIFORNIA, priority 2022, published 2026).
Structures can show the parent of a compound that is named as a salt. Where two headings read alike, the source gives them in different places.

Test system: hPSC-SCs
[1] = HTS viability of hPSC-SCs in the presence of 30 mM glucose, Prestwick library, Table S4

Row | Molecule | z.score.t | z.score.t [1]
1 | CC(=O)N(CC(O)CN(C(C)=O)c1c(I)c(C(=O)NCC(O)CO)c(I)c(C(=O)NCC(O)CO)c1I)c1c(I)c(C(=O)NCC(O)CO)c(I)c(C(=O)NCC(O)CO)c1I (stereo not shown) [Iodixanol] | 0.7539 | 
2 | COc1ccc([C@@H]2CC(=O)c3c(O)cc(O[C@@H]4O[C@H](CO[C@@H]5O[C@@H](C)[C@H](O)[C@@H](O)[C@H]5O)[C@@H](O)[C@H](O)[C@H]4O)cc3O2)cc1O [Hesperidin] | 0.2399 | 
3 | C[C@H]1CC[C@]2(NC1)O[C@H]1C[C@H]3[C@@H]4CC[C@H]5C[C@@H](O[C@@H]6O[C@H](CO)[C@H](O[C@@H]7O[C@H](CO)[C@@H](O)[C@H](O[C@@H]8OC[C@@H](O)[C@H](O)[C@H]8O)[C@H]7O[C@@H]7O[C@H](CO)[C@@H](O)[C@H](O)[C@H]7O)[C@H](O)[C@H]6O)CC[C@]5(C)[C@H]4CC[C@]3(C)[C@H]1[C@@H]2C [Tomatine] | −1.873 | 
4 | CC=CC(=O)N(CC)c1ccccc1C [Crotamiton] | −1.426 | 
5 | CN(C)CCCO[C@@H]1[C@H]2OC(C)(C)O[C@H]2O[C@@H]1[C@H](O)CO [Amiprilose hydrochloride] |  | 1.178
6 | O=c1cc(-c2ccc(O)cc2)oc2cc(O)cc(O)c12 [Apigenin] |  | −0.2904
7 | Cc1ccc(C(=O)c2ccc(CC(=O)O)n2C)cc1 [Tolmetin sodium salt dihydrate] |  | −0.05622
8 | CN[C@@H]1[C@H](O[C@H]2[C@H](O[C@H]3[C@H](O)[C@@H](O)[C@H](NC(=N)N)[C@@H](O)[C@@H]3NC(=N)N)O[C@@H](C)[C@]2(O)CO)O[C@@H](CO)[C@H](O)[C@H]1O [Dihydrostreptomycin sulfate] |  | −0.359
9 | Cc1cc2c(cc1S(N)(=O)=O)S(=O)(=O)CCC2 [Meticrane] |  | −0.3156
10 | O=C(CCCCC(=O)Nc1c(I)cc(I)c(C(=O)O)c1I)Nc1c(I)cc(I)c(C(=O)O)c1I [Iodipamide] |  | 0.5976
11 | C=CC(N)CCC(=O)O (stereo not shown) [Vigabatrin] |  | −0.8304
12 | CC(=O)c1ccc2c(c1)N(CCCN(C)C)c1ccccc1S2.O=C(O)/C=C\C(=O)O [Acetopromazine maleate salt] |  | 0.1979
13 | O=C(c1ccc(OCCN2CCCCC2)cc1)c1c(-c2ccc(O)cc2)sc2cc(O)ccc12 [Raloxifene hydrochloride] |  | −1.825
14 | CNC(=C[N+](=O)[O-])NCCSCc1csc(CN(C)C)n1 [Nizatidine] |  | −0.0788
15 | Nc1ccc(C(=O)NCC(=O)O)cc1 [Aminohippuric acid] |  | 0.8825
16 | CC(Cc1ccc(O)cc1)NCC(O)c1cc(O)cc(O)c1 (stereo not shown) [Fenoterol hydrobromide] | 0.8992 | 
17 | O=c1[nH]c(=O)n([C@H]2C[C@H](O)[C@@H](CO)O2)cc1I [Idoxuridine] |  | 0.8757
18 | COc1ccc2c(c1O)-c1c(OC)c(OC)cc3c1[C@H](C2)N(C)CC3 [Isocorydine (+)] |  | 1.845
19 | Nc1[nH]c(=O)ncc1F [Flucytosine] |  | −0.05622
20 | CN1CCC2(C)c3cc(O)ccc3N(C)C12.O=C(O)/C=C/C(=O)O (single isomer, unassigned; (-)) [(−)-Eseroline fumarate salt] | −1.336 | 
21 | Clc1ccc(CCC(Cn2ccnc2)Sc2c(Cl)cccc2Cl)cc1 (stereo not shown) [Butoconazole nitrate] |  | −1.151
22 | Cytisine (−) | −0.1641 | 
23 | Cc1ccnc(NS(=O)(=O)c2ccc(N)cc2)n1 [Sulfamerazine] |  | 0.3022
24 | OC(CCN1CCCCC1)(c1ccccc1)C1CC2C=CC1C2 (stereo not shown) [Biperiden hydrochloride] |  | 0.04918

Row | Molecule | z.score.t | z.score.t [1]
25 | Bromocryptine mesylate | −1.272 | 
26 | CCCCOC(=O)c1ccc(N)cc1 [Butamben] |  | 0.8465
27 | CCC[C@@H]1C[C@@H](C(=O)N[C@@H]([C@H]2O[C@H](SC)[C@H](O)[C@@H](O)[C@H]2O)[C@@H](C)O)N(C)C1 [Lincomycin hydrochloride] |  | 0.1446
28 | CN(C)C(=O)Oc1cc(OC(=O)N(C)C)cc(C(O)CNC(C)(C)C)c1 (stereo not shown) [Bambuterol hydrochloride] |  | −0.5919
29 | COc1cc2nc(N(C)CCCNC(=O)C3CCCO3)nc(N)c2cc1OC (stereo not shown) [Alfuzosin hydrochloride] |  | −1.061
30 | CC1(C)S[C@@H]2[C@H](NC(=O)[C@H](N)c3ccccc3)C(=O)N2[C@H]1C(=O)OC1OC(=O)c2ccccc21 (stereo partly shown) [Talampicillin hydrochloride] |  | −0.8111
31 | O=C(O)COC(=O)Cc1ccccc1Nc1c(Cl)cccc1Cl [Aceclofenac] |  | 0.08508
32 | O=C1c2c(O)ccc(O)c2C(=O)c2c(NCCNCCO)ccc(NCCNCCO)c21 [Mitoxantrone dihydrochloride] |  | −0.3936
33 | Cc1cc(C(C)(C)C)cc(C)c1CC1=NCCN1 [Xylometazoline hydrochloride] |  | −0.827
34 | C[N+](C)(CCOc1ccccc1)Cc1ccccc1.O=C([O-])c1cc2ccccc2cc1O [Bephenium hydroxynaphthoate] |  | 0.5158
35 | CCC[C@H](N[C@@H](C)C(=O)N1[C@H](C(=O)O)C[C@@H]2CCCC[C@@H]21)C(=O)OCC [Perindopril] |  | 2.067
36 | CN(C)[C@@H]1C(O)=C(C(N)=O)C(=O)[C@@]2(O)C(O)=C3C(=O)c4c(O)ccc(Cl)c4[C@@](C)(O)[C@H]3C[C@@H]12 [Chlortetracycline hydrochloride] |  | 0.02534
37 | CCCCOc1cc(C(=O)NCCN(CC)CC)c2ccccc2n1 [Dibucaine] |  | −1.214
38 | C1CCc2nnnn2CC1 [Pentylenetetrazole] |  | 1.171
39 | Cc1noc(NS(=O)(=O)c2ccc(N)cc2)c1C [Sulfisoxazole] |  | 0.1556
40 | CCCCOC(=O)c1ccc(O)cc1 [Butylparaben] | −0.2359 | 
41 | CN(C)CCN(Cc1cccs1)c1ccccn1 [Methapyrilene hydrochloride] |  | 0.1344
42 | Cc1cccc(N(C)C(=S)Oc2ccc3ccccc3c2)c1 [Tolnaftate] |  | 0.378
43 | C[C@]12CC[C@H](O)C[C@H]1CC[C@@H]1[C@@H]2CC[C@]2(C)[C@@H](C3=CC(=O)OC3)CC[C@]12O [Digitoxigenin] | −2.008 | 
44 | C[C@]12CCC(=O)C=C1CC[C@@H]1[C@@H]2C(=O)C[C@@]2(C)[C@H]1CC[C@]2(O)C(=O)CO [Cortisone] |  | 0.9568
45 | CN1CCN(CCCN2c3ccccc3Sc3ccc(C(F)(F)F)cc32)CC1 [Trifluoperazine dihydrochloride] |  | −1.866
46 | C[C@@H]1C(=O)O[C@H]2C[C@@]34[C@H]5C[C@@H](C(C)(C)C)[C@]36[C@@H](OC(=O)[C@@H]6O)O[C@@]4(C(=O)O5)[C@]21O [Ginkgolide A] | 1.034 | 
47 | CCN(CC)CC(=O)Nc1c(C)cccc1C.Cl [LidocaÂ<ne hydrochloride] | −0.01953 | 
48 | CC/C(=C(/CC)c1ccc(O)cc1)c1ccc(O)cc1 [Diethylstilbestrol] |  | 1.624

Row | Molecule | z.score.t | z.score.t [1]
49 | C#C[C@]1(OC(C)=O)CC[C@H]2[C@@H]3CCC4=C[C@@H](OC(C)=O)CC[C@@H]4[C@H]3CC[C@@]21C [Ethynodiol diacetate] |  | −0.3895
50 | Cc1cc(=O)n(-c2ccccc2)n1C [Antipyrine] | −0.2131 | 
51 | CCn1cc(C(=O)O)c(=O)c2cc(F)c(N3CCNCC3)cc21 [Norfloxacin] |  | 0.3922
52 | CN(C)[C@@H]1C(O)=C(C(N)=O)C(=O)[C@@]2(O)C(O)=C3C(=O)c4c(O)ccc(Cl)c4[C@@H](O)[C@H]3C[C@@H]12 [Demeclocycline hydrochloride] |  | 0.4318
53 | Cc1cc(NS(=O)(=O)c2ccc(N)cc2)no1 [Sulfamethoxazole] |  | 0.02534
54 | O=c1cc(-c2ccccc2)oc2cc(O)cc(O)c12 [Chrysin] |  | 0.2139
55 | C=C(NC(=O)C(=C)NC(=O)c1csc(C2=N[C@@H]3c4csc(n4)[C@H]4NC(=O)c5csc(n5)[C@H]([C@](C)(O)[C@@H](C)O)NC(=O)[C@H]5CSC(=N5)/C(=C/C)NC(=O)[C@H]([C@@H](C)O)NC(=O)c5csc(n5)[C@]3(CC2)NC(=O)[C@H](C)NC(=O)C(=C)NC(=O)[C@H](C)NC(=O)[C@H]([C@@H](C)CC)N[C@@H]2C=Cc3c([C@H](C)O)cc(nc3[C@H]2O)C(=O)O[C@@H]4C)n1)C(N)=O [Thiostrepton] | 0.6013 | 
56 | C[C@H]1C(=O)O[C@@H]2CCN3CC=C(COC(=O)[C@](C)(O)[C@]1(C)O)[C@H]23 [Monocrotaline] | 0.5046 | 
57 | C[C@H]1O[C@@H](O[C@H]2[C@@H](O)C[C@H](O[C@H]3[C@@H](O)C[C@H](O[C@H]4CC[C@@]5(C)[C@H](CC[C@@H]6[C@@H]5C[C@@H](O)[C@]5(C)[C@@H](C7=CC(=O)OC7)CC[C@]65O)C4)O[C@@H]3C)O[C@@H]2C)C[C@H](O)[C@@H]1O [Digoxin] | −2.04 | 
58 | CC[N+](C)(C)Cc1ccccc1Br [Bretylium tosylate] |  | −0.3895
59 | CO[C@@H]1C=C2CCN(C)[C@@H]2C2c3cc4c(cc3C(=O)OC21)OCO4.O=[N+]([O-])O (stereo partly shown) [Ungerine nitrate] |  | 1.117
60 | CCCc1cc(=O)[nH]c(=S)[nH]1 [Propylthiouracil] |  | −0.2904
61 | N[C@@H]1C[C@H]1c1ccccc1 [Tranylcypromine hydrochloride] |  | 0.08508
62 | CC(C)(Sc1cc(C(C)(C)C)c(O)c(C(C)(C)C)c1)Sc1cc(C(C)(C)C)c(O)c(C(C)(C)C)c1 [Probucol] |  | 0.1344
63 | O=C1CCc2cc(OCCCCc3nnnn3C3CCCCC3)ccc2N1 [Cilostazol] |  | 1.73
64 | C[C@]12CC[C@@H]3c4ccc(O)cc4CC[C@H]3[C@@H]1CCC2=O [Estrone] |  | 1.784
65 | COc1cc(CNC(=O)CCCC/C=C/C(C)C)ccc1O [Capsaicin] |  | 0.03421
66 | CCN(CC)CCOC(=O)C(c1ccccc1)C1CCCCC1 (stereo not shown) [Drofenine hydrochloride] |  | −0.1913
67 | C[C@H](N)[C@H](O)c1ccc(O)c(O)c1 [Levonordefrin] | 0.1916 | 
68 | COCCOC(=O)C1=C(C)NC(C)=C(C(=O)OC(C)C)C1c1cccc([N+](=O)[O-])c1 (stereo not shown) [Nimodipine] |  | −1.245
69 | Cc1c(O)c(=O)n(-c2ccccc2)n1C [Antipyrine, 4-hydroxy] |  | 0.04029
70 | COc1cc2c(cc1O)C[C@H]1c3c(cc(O)c(OC)c3-2)CCN1C [Boldine] | 0.767 | 
